Test systems include HCT-15 colon; HL-60(TB) leukemia; M14 melanoma; OVCAR-4 ovarian; OVCAR-5 ovarian; SK-MEL-2 melanoma; SK-MEL-5 melanoma; SW-620 colon; UACC-257 melanoma; CCRF-CEM leukemia.
What all share (assay): NCI-60 cell line screen, 48 h

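Compound exposure: 48 hours, 5 concentrations, 96-well plates. At the GI50, growth is halved. TGI denotes the concentration required for complete inhibition of growth.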

Regarding `N=c1ccn2c(n1)OC1C(OP(=O)(O)O)C(CO)OC12` (configuration not stated), the TGI with HCT-15 colon was > 100 µM; with HL-60(TB) leukemia it was 13.6 µM; with M14 melanoma, > 45.8 µM; in the test with OVCAR-4 ovarian it was > 100 µM; in the test with OVCAR-5 ovarian, > 100 µM; in the test on SK-MEL-2 melanoma, > 100 µM. Also, the TGI with SK-MEL-5 melanoma, with SW-620 colon and in the test with UACC-257 melanoma was > 100 µM throughout.
For `c1cncc(C2c3[nH]c4ccccc4c3CCN2CCCN2CCCCC2)c1` (configuration not stated), the TGI with HCT-15 colon was > 100 µM; in the test on HL-60(TB) leukemia, > 100 µM; in the test with M14 melanoma it was 41.1 µM; with OVCAR-4 ovarian, > 100 µM; with OVCAR-5 ovarian, > 100 µM; in the test with SK-MEL-2 melanoma it was > 100 µM. Also, the TGI in the test on SK-MEL-5 melanoma, with SW-620 colon and in the test with UACC-257 melanoma was > 100 µM in each case.
Regarding `CC(=O)[O-].CC(=O)[O-].[Mn+2].c1ccc(/C(=N\Nc2ccccn2)c2ccccn2)cc1`, the TGI stood at 0.402 µM in the test with CCRF-CEM leukemia; 16.1 µM in the test on HCT-15 colon; 0.00504 µM in the test on HL-60(TB) leukemia; 1.38 µM in the test with M14 melanoma; 24.5 µM in the test on OVCAR-4 ovarian; 5.38 µM in the test with SK-MEL-5 melanoma. The TGI with SW-620 colon turned out to be 14.5 µM; in the test on UACC-257 melanoma, 6.45 µM. For the same molecule, the GI50 with HCT-15 colon was 0.0432 µM; in the test with HL-60(TB) leukemia it was 0.00173 µM; in the test with M14 melanoma, 0.0349 µM; in the test on SK-MEL-5 melanoma, 0.0567 µM; with SW-620 colon, 0.0535 µM; in the test with UACC-257 melanoma, 0.0496 µM.
In the case of `COc1cccc(/C=C(/C(=O)O)c2cc(OC)c(OC)c(OC)c2)c1`, the TGI in the test with CCRF-CEM leukemia, with HCT-15 colon, in the test with HL-60(TB) leukemia, in the test on M14 melanoma, in the test on OVCAR-4 ovarian and in the test on SK-MEL-5 melanoma was > 100 µM throughout. In addition, the TGI in the test on SW-620 colon and in the test on UACC-257 melanoma was > 100 µM each time.
For `CCOC(=O)/C(=C/c1ccc(OC)c(OC)c1)C(=O)c1ccccc1`, the TGI in the test on CCRF-CEM leukemia is 55.1 µM; in the test with HCT-15 colon it was 42 µM; in the test on M14 melanoma it was 28.9 µM; in the test with OVCAR-4 ovarian it was 60.3 µM; in the test on OVCAR-5 ovarian, 40.6 µM; in the test on SK-MEL-2 melanoma, > 100 µM. Moreover, the TGI in the test with SK-MEL-5 melanoma came out at 29.5 µM; in the test with SW-620 colon, 48.5 µM; in the test with UACC-257 melanoma, 33.2 µM.
In the case of `OCCN1CCN(CCO)Cc2ccccc2OCCOc2ccccc2C1`, the TGI in the test with CCRF-CEM leukemia, in the test with HCT-15 colon, with M14 melanoma, with OVCAR-4 ovarian, with OVCAR-5 ovarian and in the test with SK-MEL-2 melanoma was > 100 µM each time. The TGI in the test with SK-MEL-5 melanoma, with SW-620 colon and in the test on UACC-257 melanoma was > 100 µM throughout.
In the case of `CSc1nc(NC2OCC(OC(C)=O)C(OC(C)=O)C2OC(C)=O)c(N=CC=Nc2c(NC3OCC(OC(C)=O)C(OC(C)=O)C3OC(C)=O)nc(SC)n(C)c2=O)c(=O)n1C` (configuration not stated), the TGI with HCT-15 colon, in the test with HL-60(TB) leukemia, in the test on M14 melanoma, with OVCAR-4 ovarian, with OVCAR-5 ovarian and in the test with SK-MEL-2 melanoma was > 100 µM in each case. The TGI with SK-MEL-5 melanoma, in the test with SW-620 colon and in the test with UACC-257 melanoma was > 100 µM in each case.
As to `CC1(C)CCC(=O)c2c(O)ccc(O)c21`, the TGI in the test with HCT-15 colon, in the test on OVCAR-4 ovarian, with OVCAR-5 ovarian, in the test on SK-MEL-2 melanoma, in the test on SK-MEL-5 melanoma and in the test with SW-620 colon was > 100 µM in each case. Besides, in the test on UACC-257 melanoma, the TGI turned out to be 81.9 µM.
In the case of `CON(C)C(=O)C(Cc1ccccc1)NC(=O)OC(C)(C)C` (configuration not stated), the TGI in the test on CCRF-CEM leukemia, with HCT-15 colon, in the test with HL-60(TB) leukemia, with M14 melanoma, with OVCAR-5 ovarian and in the test with SK-MEL-5 melanoma was > 100 µM each time. Also, the TGI with SW-620 colon and in the test on UACC-257 melanoma was > 100 µM each time.
Turning to `CC[O-].CC[O-].[O-]c1ccccc1C=Nc1ccccc1.[O-]c1ccccc1C=Nc1ccccc1.[Ti+4]`, the GI50 is 10.9 µM with CCRF-CEM leukemia; > 100 µM in the test on HL-60(TB) leukemia; > 100 µM in the test with M14 melanoma; > 100 µM in the test with OVCAR-4 ovarian; > 100 µM with OVCAR-5 ovarian; 45.5 µM in the test on SK-MEL-5 melanoma. In addition, the values for the GI50 in the test on SW-620 colon and in the test with UACC-257 melanoma were 9.24 µM and > 100 µM, respectively. For the same molecule, the TGI with CCRF-CEM leukemia, in the test on HL-60(TB) leukemia, in the test with M14 melanoma, in the test with OVCAR-4 ovarian, in the test on OVCAR-5 ovarian and with SK-MEL-5 melanoma was > 100 µM in each case. The TGI in the test with SW-620 colon and in the test with UACC-257 melanoma was > 100 µM in each case.
On to `[N-]=[N+]=NC1(N=[N+]=[N-])C(=O)NN=C(c2ccccc2)C1=O` (configuration not stated), for which the TGI in the test with CCRF-CEM leukemia is 83.9 µM; in the test on HCT-15 colon it was > 100 µM; with HL-60(TB) leukemia, > 100 µM; in the test with M14 melanoma it was > 100 µM; with OVCAR-4 ovarian, > 100 µM; with SW-620 colon it was > 100 µM. For the same molecule, the TGI in the test with UACC-257 melanoma was > 100 µM.
On to `O=C1CN(c2cccc(C(F)(F)F)c2)C(=O)CN1NCNN1CC(=O)N(c2cccc(C(F)(F)F)c2)CC1=O`, for which the TGI in the test with CCRF-CEM leukemia, in the test with HCT-15 colon, in the test on HL-60(TB) leukemia, in the test with M14 melanoma, with OVCAR-5 ovarian and in the test with SK-MEL-5 melanoma was > 100 µM throughout. Further, the TGI with SW-620 colon and in the test with UACC-257 melanoma was > 100 µM throughout.
As for `CCOC(=O)C12CCCC1(O)N(NC(=O)c1cccc(Cl)c1)C(C)=C2C(=O)OC` (configuration not stated), the TGI with HCT-15 colon, with HL-60(TB) leukemia, with M14 melanoma, in the test with OVCAR-4 ovarian, in the test with OVCAR-5 ovarian and in the test with SK-MEL-2 melanoma was > 100 µM throughout. The TGI in the test on SK-MEL-5 melanoma, in the test on SW-620 colon and in the test on UACC-257 melanoma was > 100 µM throughout.
Turning to `O=C1C(=O)c2cc([N+](=O)[O-])ccc2-c2ccccc21`, the GI50 was 1.8 µM with HCT-15 colon; 1.97 µM in the test on M14 melanoma; 1.25 µM in the test on OVCAR-4 ovarian; 1.82 µM with OVCAR-5 ovarian; 1.55 µM with SK-MEL-2 melanoma; 1.8 µM in the test with SK-MEL-5 melanoma. The results for the GI50 in the test on SW-620 colon and with UACC-257 melanoma were 1.54 µM and 1.7 µM, respectively. The TGI in the test on HCT-15 colon amounted to 3.59 µM; in the test on M14 melanoma it was 3.5 µM; with OVCAR-4 ovarian, 2.66 µM; in the test with OVCAR-5 ovarian, 3.36 µM; with SK-MEL-2 melanoma, 3.05 µM; in the test with SK-MEL-5 melanoma it was 3.2 µM. The TGI turned out to be 2.98 µM with SW-620 colon and 3.13 µM with UACC-257 melanoma.
Regarding `Cc1ccc(-c2csc(N(C(=O)N3CCN(c4cc5c(cc4F)c(=O)c(C(=O)O)cn5C4CC4)CC3)c3ccccc3)n2)cc1`, the GI50 with M14 melanoma was 0.394 µM; in the test with SK-MEL-2 melanoma, 0.344 µM; with SK-MEL-5 melanoma, 0.541 µM; in the test on UACC-257 melanoma, 0.372 µM. Further, the TGI in the test on M14 melanoma was > 100 µM; in the test with SK-MEL-2 melanoma, 1.75 µM; with SK-MEL-5 melanoma it was > 100 µM; in the test with UACC-257 melanoma it was > 100 µM.
`O=c1oc2ccc(Cl)cc2c(=O)n1-c1ccc(Cl)cc1F`: the GI50 in the test on CCRF-CEM leukemia was 1.7 µM; with HCT-15 colon, 0.791 µM; with M14 melanoma, 0.578 µM; in the test on OVCAR-4 ovarian, 0.377 µM; with OVCAR-5 ovarian, 3.83 µM; with SK-MEL-2 melanoma, 0.37 µM. Moreover, the GI50 was 0.205 µM with SK-MEL-5 melanoma, 0.652 µM in the test on SW-620 colon and 0.496 µM with UACC-257 melanoma. In addition, the TGI in the test on CCRF-CEM leukemia was 10.4 µM; in the test with HCT-15 colon it was 6.69 µM; in the test with M14 melanoma, 2.12 µM; in the test with OVCAR-4 ovarian it was 78.9 µM; in the test on OVCAR-5 ovarian, > 95 µM; in the test on SK-MEL-2 melanoma, 2.26 µM. The TGI came to 0.486 µM with SK-MEL-5 melanoma, 9.02 µM in the test with SW-620 colon and 2.31 µM in the test on UACC-257 melanoma.
As for `O=C(O)C1C2C=CC(O2)C1C(=O)Nc1ccccc1` (configuration not stated), the TGI in the test with CCRF-CEM leukemia, in the test on HCT-15 colon, in the test with M14 melanoma, in the test on OVCAR-4 ovarian, in the test with OVCAR-5 ovarian and with SK-MEL-2 melanoma was > 100 µM each time. Moreover, the TGI in the test on SK-MEL-5 melanoma, in the test on SW-620 colon and with UACC-257 melanoma was > 100 µM throughout.
For the molecule `O=C(O)/C(Cl)=C(\Cl)Nc1cccc(C(F)(F)F)c1`, the TGI in the test with CCRF-CEM leukemia was > 100 µM; in the test with HCT-15 colon it was > 100 µM; in the test with HL-60(TB) leukemia, > 100 µM; in the test with M14 melanoma, 33.4 µM; with OVCAR-4 ovarian, > 100 µM; in the test on SW-620 colon, > 100 µM.
As to `CC(=O)[CH-]C(=O)c1ccccc1.CC(=O)[CH-]C(=O)c1ccccc1.O=C([O-])C[O-].O=C([O-])C[O-].[Ti+4]`, the GI50 was 30.9 µM in the test on HCT-15 colon; 40 µM in the test on HL-60(TB) leukemia; 34.7 µM with M14 melanoma; 41 µM in the test on OVCAR-4 ovarian; > 100 µM in the test with OVCAR-5 ovarian; 30.5 µM in the test with SK-MEL-2 melanoma. Further, the values for the GI50 with SK-MEL-5 melanoma, in the test on SW-620 colon and in the test on UACC-257 melanoma were 31.9 µM, 53.8 µM and 43.1 µM, respectively. In addition, the TGI in the test with HCT-15 colon, with HL-60(TB) leukemia, in the test with M14 melanoma, in the test with OVCAR-4 ovarian, in the test with OVCAR-5 ovarian and in the test on SK-MEL-2 melanoma was > 100 µM throughout. The TGI with SK-MEL-5 melanoma, in the test with SW-620 colon and with UACC-257 melanoma was > 100 µM in each case.

The values are drawn from PubChem BioAssay (NCI).
